In patent publication US8030321B2, “Benzofuro- and benzothienopyrimidine modulators of the histamine H4 receptor” (Janssen Pharmaceutica, NV, priority 2006, dated 2011) one finds Ki data, which are given here for 32 molecules.

Counter-ions that a name gives are not always drawn. A value given as a limit tells only on which side of the number the result lay.

The target in one assay is T1, human histamine H4 receptor (Homo sapiens, UniProt Q9H3N8).
T1 construct: expressed in transfected cells; host or cells: SK-N-MC cells or COS7 cells, transiently transfected; cell membranes used
T1 sequence (Q9H3N8 whole entry): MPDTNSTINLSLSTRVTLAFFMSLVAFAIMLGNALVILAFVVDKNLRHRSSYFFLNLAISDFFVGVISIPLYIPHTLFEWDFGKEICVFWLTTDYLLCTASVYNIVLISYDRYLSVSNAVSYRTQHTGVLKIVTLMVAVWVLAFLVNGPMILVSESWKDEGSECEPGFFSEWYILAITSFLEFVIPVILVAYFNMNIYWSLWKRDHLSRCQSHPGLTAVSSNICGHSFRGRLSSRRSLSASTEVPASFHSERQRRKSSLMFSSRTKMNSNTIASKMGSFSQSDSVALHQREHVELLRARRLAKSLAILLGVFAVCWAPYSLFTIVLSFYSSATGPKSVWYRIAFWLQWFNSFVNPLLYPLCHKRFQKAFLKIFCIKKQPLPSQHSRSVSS
Nature of the assay: Binding Assay on Recombinant Human Histamine H4 Receptor.
Settings: not given
Here is the method: Binding Assay on Recombinant Human Histamine H4 Receptor
SK-N-MC cells or COS7 cells were transiently transfected with pH4R and grown in 150 cm^2 tissue culture dishes. Cells were washed with saline solution, scraped with a cell scraper and collected by centrifugation (1000 rpm, 5 min). Cell membranes were prepared by homogenization of the cell pellet in 20 mM Tris-HCl with a polytron tissue homogenizer for 10 sec at high speed. Homogenate was centrifuged at 1000 rpm for 5 min at 4° C. […] The final pellet was resuspended in 50 mM Tris-HCl. Cell membranes were incubated with ^3H-histamine (5-70 nM) in the presence or absence of excess histamine (10,000 nM). […] Membranes were harvested by rapid filtration over Whatman GF/C filters and washed 4 times with ice-cold 50 mM Tris HCl. Filters were then dried, mixed with scintillant and counted for radioactivity. SK-N-MC or COS7 cells expressing human histamine H4 receptor were used to measure the affinity of binding of other compounds and their ability to displace ^3H-ligand binding by incubating the above-described reaction in the presence of various concentrations of inhibitor or compound to be tested.
On to `Nc1nc(N2CC3CCCNC3C2)c2sc3ccc(Br)cc3c2n1` (centres unmarked) [Example 45, 8-Bromo-4-(octahydro-pyrrolo[3,4-b]pyridin-6-yl)-benzo[4,5]thieno[3,2-d]pyrimidin-2-ylamine hydrochloride salt], for which the Ki (in general, a dissociation constant, usually derived from enzyme kinetics or from competition with a known ligand) stood at 0.0048 µM.
The same measure, in the same setting: for `Nc1nc(N2CC3CCCNC3C2)c2sc3cc(Br)ccc3c2n1` (centres unmarked) [Example 46, 7-Bromo-4-(octahydro-pyrrolo[3,4-b]pyridin-6-yl)-benzo[4,5]thieno[3,2-d]pyrimidin-2-ylamine trifluoroacetic acid salt] the value was 0.028 µM; for `Nc1nc(N2C[C@@H]3C[C@H]2CN3)c2sc3ccc(Br)cc3c2n1` [Example 49, (S,S)-8-Bromo-4-(2,5-diaza-bicyclo[2.2.1]hept-2-yl)-benzo[4,5]thieno[3,2-d]pyrimidin-2-ylamine hydrochloride salt], 0.35 µM; for `Nc1nc(N2C[C@@H]3C[C@H]2CN3)c2sc3cc(Cl)ccc3c2n1` [Example 62, (S,S)-7-Chloro-4-(2,5-diaza-bicyclo[2.2.1]hept-2-yl)-benzo[4,5]thieno[3,2-d]pyrimidin-2-ylamine trifluoroacetic acid salt], 0.88 µM.
For the molecule `Nc1nc(N2CC3CCCNC3C2)c2sc3ccc(Cl)cc3c2n1` (centres unmarked) [Example 64, 8-Chloro-4-(octahydro-pyrrolo[3,4-b]pyridin-6-yl)-benzo[4,5]thieno[3,2-d]pyrimidin-2-ylamine trifluoroacetic acid salt], the Ki worked out at 0.005 µM.
The same measure, in the same setting: for `Nc1nc(N2C[C@@H]3C[C@H]2CN3)c2sc3ccc(Cl)cc3c2n1` [Example 68, (S,S)-8-Chloro-4-(2,5-diaza-bicyclo[2.2.1]hept-2-yl)-benzo[4,5]thieno[3,2-d]pyrimidin-2-ylamine trifluoroacetic acid salt] the value was 0.84 µM.
Take `Nc1nc(N2CCN3CCCC3C2)c2oc3ccc(Cl)cc3c2n1` (centres unmarked) [Example 69, 8-Chloro-4-(hexahydro-pyrrolo[1,2-a]pyrazin-2-yl)-benzo[4,5]furo[3,2-d]pyrimidin-2-ylamine trifluoroacetic acid salt]: the Ki is 0.015 µM.
Same read-out and setting: with `Nc1nc(N2CC3CCNC3C2)c2oc3ccc(F)cc3c2n1` (centres unmarked) [Example 71, 8-Fluoro-4-(hexahydro-pyrrolo[3,4-b]pyrrol-5-yl)-benzo[4,5]furo[3,2-d]pyrimidin-2-ylamine trifluoroacetic acid salt] the figure was 0.0078 µM.

Staying with this assay, now noted: competition binding with 3H-histamine (5 nM), membranes of SK-N-MC or COS7 cells expressing human H4 receptor; Cheng-Prusoff, KD 5 nM; average of results obtained; read-out: Ki.
In the case of `CN1CCN(c2nc(N)nc3c2sc2ccccc23)CC1` [Example 44, 4-(4-Methyl-piperazin-1-yl)-benzo[4,5]thieno[3,2-d]pyrimidin-2-ylamine], the Ki is 0.029 µM.
Consider `CN[C@H]1CCN(c2nc(N)nc3c2sc2ccc(Br)cc23)C1` [Example 47, (S)-8-Bromo-4-(3-methylamino-pyrrolidin-1-yl)-benzo[4,5]thieno[3,2-d]pyrimidin-2-ylamine hydrochloride salt], for which the Ki is 0.1 µM.
Still for that read-out and setting: for `CN[C@@H]1CCN(c2nc(N)nc3c2sc2ccc(Br)cc23)C1` [Example 48, (R)-8-Bromo-4-(3-methylamino-pyrrolidin-1-yl)-benzo[4,5]thieno[3,2-d]pyrimidin-2-ylamine hydrochloride salt] the value was 0.0021 µM; for `CN1CCN(c2nc(N)nc3c2sc2ccc(Br)cc23)CC1` [Example 50, 8-Bromo-4-(4-methyl-piperazin-1-yl)-benzo[4,5]thieno[3,2-d]pyrimidin-2-ylamine hydrochloride salt], 0.001 µM; for `CN[C@H]1CCN(c2nc(N)nc3c2sc2cc(C(F)(F)F)ccc23)C1` [Example 51, (S)-4-(3-Methylamino-pyrrolidin-1-yl)-7-trifluoromethyl-benzo[4,5]thieno[3,2-d]pyrimidin-2-ylamine trifluoroacetic acid salt], more than 10 µM.
As for `CN[C@@H]1CCN(c2nc(N)nc3c2sc2cc(C(F)(F)F)ccc23)C1` [Example 52, (R)-4-(3-Methylamino-pyrrolidin-1-yl)-7-trifluoromethyl-benzo[4,5]thieno[3,2-d]pyrimidin-2-ylamine trifluoroacetic acid salt], the Ki was 0.12 µM.
Still for that read-out and setting: for `Nc1nc(N2C[C@@H]3C[C@H]2CN3)c2sc3cc(C(F)(F)F)ccc3c2n1` [Example 53, (S,S)-4-(2,5-Diaza-bicyclo[2.2.1]hept-2-yl)-7-trifluoromethyl-benzo[4,5]thieno[3,2-d]pyrimidin-2-ylamine trifluoroacetic acid salt] the value was more than 10 µM; for `CN1CCN(c2nc(N)nc3c2sc2cc(C(F)(F)F)ccc23)CC1` [Example 54, 4-(4-Methyl-piperazin-1-yl)-7-trifluoromethyl-benzo[4,5]thieno[3,2-d]pyrimidin-2-ylamine trifluoroacetic acid salt], 0.44 µM.
In the case of `CN1CCN(c2nc(N)nc3c2sc2cc(Br)ccc23)CC1` [Example 55, 7-Bromo-4-(4-methyl-piperazin-1-yl)-benzo[4,5]thieno[3,2-d]pyrimidin-2-ylamine trifluoroacetic acid salt], the inhibition constant (Ki) was determined as 0.043 µM.
Consider `CN[C@@H]1CCN(c2nc(N)nc3c2sc2cc(Br)ccc23)C1` [Example 56, (R)-7-Bromo-4-(3-methylamino-pyrrolidin-1-yl)-benzo[4,5]thieno[3,2-d]pyrimidin-2-ylamine trifluoroacetic acid salt], for which the Ki stood at 0.025 µM.
On the same count and under the same terms, with `CN[C@H]1CCN(c2nc(N)nc3c2sc2cc(Br)ccc23)C1` [Example 57, (S)-7-Bromo-4-(3-methylamino-pyrrolidin-1-yl)-benzo[4,5]thieno[3,2-d]pyrimidin-2-ylamine trifluoroacetic acid salt] the figure was 0.15 µM; with `Nc1nc(N2CC3CCCNC3C2)c2sc3cc(C(F)(F)F)ccc3c2n1` (centres unmarked) [Example 58, 4-(Octahydro-pyrrolo[3,4-b]pyridin-6-yl)-7-trifluoromethyl-benzo[4,5]thieno[3,2-d]pyrimidin-2-ylamine trifluoroacetic acid salt], 0.3 µM; with `CN[C@@H]1CCN(c2nc(N)nc3c2sc2cc(Cl)ccc23)C1` [Example 60, (R)-7-Chloro-4-(3-methylamino-pyrrolidin-1-yl)-benzo[4,5]thieno[3,2-d]pyrimidin-2-ylamine trifluoroacetic acid salt], 0.0052 µM.
In the case of `CN[C@H]1CCN(c2nc(N)nc3c2sc2cc(Cl)ccc23)C1` [Example 61, (S)-7-Chloro-4-(3-methylamino-pyrrolidin-1-yl)-benzo[4,5]thieno[3,2-d]pyrimidin-2-ylamine trifluoroacetic acid salt], the Ki was 0.033 µM.
On the same count and under the same terms, with `CN1CCN(c2nc(N)nc3c2sc2cc(Cl)ccc23)CC1` [Example 63, 7-Chloro-4-(4-methyl-piperazin-1-yl)-benzo[4,5]thieno[3,2-d]pyrimidin-2-ylamine trifluoroacetic acid salt] the figure was 0.019 µM.
Same read-out and setting: for `CN[C@H]1CCN(c2nc(N)nc3c2sc2ccc(Cl)cc23)C1` [Example 65, (S)-8-Chloro-4-(3-methylamino-pyrrolidin-1-yl)-benzo[4,5]thieno[3,2-d]pyrimidin-2-ylamine trifluoroacetic acid salt] the value was 0.1 µM.
Take `CN[C@@H]1CCN(c2nc(N)nc3c2sc2ccc(Cl)cc23)C1` [Example 66, (R)-8-Chloro-4-(3-methylamino-pyrrolidin-1-yl)-benzo[4,5]thieno[3,2-d]pyrimidin-2-ylamine trifluoroacetic acid salt]: the Ki is 0.001 µM.
Take `CN1CCN(c2nc(N)nc3c2sc2ccc(Cl)cc23)CC1` [Example 67, 8-Chloro-4-(4-methyl-piperazin-1-yl)-benzo[4,5]thieno[3,2-d]pyrimidin-2-ylamine trifluoroacetic acid salt]: the inhibition constant Ki stood at 0.014 µM.
On to `CN1CCN(c2nc(N)nc3c2sc2ccc(F)cc23)CC1` [Example 70, 8-Fluoro-4-(4-methyl-piperazin-1-yl)-benzo[4,5]thieno[3,2-d]pyrimidin-2-ylamine trifluoroacetic acid salt], for which the Ki turned out to be 0.0189 µM.
Regarding `CCN[C@H]1CCCN(c2nc(N)nc3c2oc2ccc(Cl)cc23)C1` [Example 72, (S)-8-Chloro-4-(3-ethylamino-piperidin-1-yl)-benzo[4,5]furo[3,2-d]pyrimidin-2-ylamine trifluoroacetic acid salt], the Ki amounted to 0.343 µM.
Still for that read-out and setting: with `CCN[C@@H]1CCN(c2nc(N)nc3c2oc2ccc(Cl)cc23)C1` [Example 73, (R)-8-Chloro-4-(3-ethylamino-pyrrolidin-1-yl)-benzo[4,5]furo[3,2-d]pyrimidin-2-ylamine trifluoroacetic acid salt] the figure was 0.075 µM; with `CN[C@H]1CCCN(c2nc(N)nc3c2oc2ccc(Cl)cc23)C1` [Example 74, (S)-8-Chloro-4-(3-methylamino-piperidin-1-yl)-benzo[4,5]furo[3,2-d]pyrimidin-2-ylamine citrate salt], 0.216 µM; with `CN(C)[C@H]1CCCN(c2nc(N)nc3c2oc2ccc(Cl)cc23)C1` [Example 75, (S)-8-Chloro-4-(3-dimethylamino-piperidin-1-yl)-benzo[4,5]furo[3,2-d]pyrimidin-2-ylamine trifluoroacetic acid salt], 0.65 µM.
Regarding `CN[C@@H]1CCN(c2nc(N)nc3c2sc2ccc(F)cc23)C1` [Example 76, (R)-8-Fluoro-4-(3-methylamino-pyrrolidin-1-yl)-benzo[4,5]thieno[3,2-d]pyrimidin-2-ylamine trifluoroacetic acid salt], the Ki was 0.032 µM.
